In ChEMBL document CHEMBL1158035, “Actinomycins with altered threonine units in the beta-peptidolactone” (2006):
Where “and” joins values, the source holds several entries; their conditions need not be identical. Identical values can stand only once. Numbered stars: 1 amine (or outer) side, 2 acyl side, 3 side chain; on linkers, the order of the positions; unused ones are H or OH. Bridge positions count the residues as written; N and C are the ends. Square brackets hold non-standard residues; d marks the D form. Peptide text beside a SMILES is read from it. I, II: the chains in the order shown. Actinocin(1to9) = Cc1c2oc3c(C)ccc(C(=O)[*:2])c3nc-2c(C(=O)[*:1])c(N)c1=O; NMeV = CN[C@H](C(=O)O)C(C)C; Sar = CNCC(=O)O

Experiments:
Staphylococcus aureus = test: Antimicrobial activity against Staphylococcus aureus at 50 ug after 24 hrs by disk diffusion method; format: functional; settings: read-out: IZ
[1] = Cytotoxicity against human HM02 cells; format: functional
Bacillus subtilis = test: Antimicrobial activity against Bacillus subtilis at 50 ug after 24 hrs by disk diffusion method; format: functional; settings: read-out: IZ
[2] = (§1) Cytotoxicity against human Hep G2 cells; format: functional, HepG2
Escherichia coli = test: Antimicrobial activity against Escherichia coli at 50 ug after 24 hrs by disk diffusion method; format: functional; settings: read-out: IZ
[3] = as §1; format: functional; settings: HepG2

SMILES	zone of inhibition at 50 µg/disc (Staphylococcus aureus)	GI50 ([1]; Homo sapiens, HM02)	TGI ([1]; Homo sapiens, HM02)	zone of inhibition at 50 µg/disc (Bacillus subtilis)	GI50 ([2]; Homo sapiens, HepG2)	TGI ([2]; Homo sapiens, HepG2)	zone of inhibition at 50 µg/disc (Escherichia coli)	GI50 [3]	TGI [3]	TGI [1]	TGI [2]
Cc1c2oc3c(C)ccc(C(=O)N[C@@H]4C(=O)N[C@H](C(C)C)C(=O)N5[C@H](C(=O)N(C)CC(=O)N(C)[C@@H](C(C)C)C(=O)O[C@@H]4C)[C@@H](O)C[C@@H]5C)c3nc-2c(C(=O)N[C@@H]2C(=O)N[C@H](C(C)C)C(=O)N3CCC[C@H]3C(=O)N(C)CC(=O)N(C)[C@@H](C)C(=O)O[C@@H]2CCl)c(N)c1=O [ACTINOMYCIN G2]	27 mm	1.3 nM	4.3 nM	45 mm	2.9 nM	18 nM	15 mm	3.9 nM	12 nM		
Cc1c2oc3c(C)ccc(C(=O)N[C@@H]4C(=O)N[C@H](C(C)C)C(=O)N5[C@H](C(=O)N(C)CC(=O)N(C)[C@@H](C(C)C)C(=O)O[C@@H]4C)[C@@H](O)C[C@@H]5C)c3nc-2c(C(=O)N[C@@H]2C(=O)N[C@H](C(C)C)C(=O)N3CCC[C@H]3C(=O)N(C)CC(=O)N(C)[C@@H](C)C(=O)O[C@@H]2CO)c(N)c1=O [ACTINOMYCIN G3]	21 mm	130 nM	550 nM	33 mm	1100 nM	> 7900 nM	0 mm	460 nM	1600 nM		
Cc1c2oc3c(C)ccc(C(=O)N[C@@H]4C(=O)N[C@H](C(C)C)C(=O)N5CCC[C@H]5C(=O)N(C)CC(=O)N(C)[C@@H](C(C)C)C(=O)O[C@@H]4C)c3nc-2c(C(=O)N[C@@H]2C(=O)N[C@H](C(C)C)C(=O)N3CCC[C@H]3C(=O)N(C)CC(=O)N(C)[C@@H](C(C)C)C(=O)O[C@@H]2C)c(N)c1=O [DACTINOMYCIN] (I: T[dV]P[Sar][NMeV] / II: T[dV]P[Sar][NMeV]; ester I:1-I:C, II:1-II:C; linker I:N-II:N via Actinocin(1to9))	30 mm	1.6 nM	6.4 nM	55 mm	1.2 nM	52 nM	20 mm	1.9 nM	8.8 nM		
Nc1cc2nc3ccccc3oc-2cc1=O		4450 nM	10000 nM		6600 nM	26000 nM		610 nM	2000 nM		
Cc1c2oc3c(C)ccc(C(=O)N[C@@H]4C(=O)N[C@H](C(C)C)C(=O)N5[C@H](C(=O)N(C)CC(=O)N(C)[C@@H](C(C)C)C(=O)O[C@@H]4C)[C@@H](O)C[C@@H]5C)c3nc-2c(C(=O)N[C@@H]2C(=O)N[C@H](C(C)C)C(=O)N3CCC[C@H]3C(=O)N(C)CC(=O)N(C)[C@@H](C)C(=O)O[C@@H]2C)c(N)c1=O [ACTINOMYCIN G4]		65 nM	520 nM		640 nM	1400 nM		400 nM	1500 nM		
Cc1c2oc3c(C)ccc(C(=O)N[C@@H]4C(=O)N[C@H](C(C)C)C(=O)N5[C@H](C(=O)N(C)CC(=O)N(C)[C@@H](C(C)C)C(=O)O[C@@H]4C)[C@@H](O)C[C@@H]5C)c3nc-2c2c(c1=O)OC[C@H]1OC(=O)[C@H](C)N(C)C(=O)CN(C)C(=O)[C@@H]3CCCN3C(=O)[C@@H](C(C)C)NC(=O)[C@H]1NC2=O [ACTINOMYCIN G5]	10 mm	2100 nM	4400 nM	20 mm	2700 nM	7800 nM	0 mm	1400 nM	2500 nM		
Cc1c2oc3c(C)ccc(C(=O)N[C@@H]4C(=O)N[C@H](C(C)C)C(=O)N5[C@H](C(=O)N(C)CC(=O)N(C)[C@@H](C(C)C)C(=O)O[C@@H]4C)[C@@H](O)C[C@@H]5C)c3nc-2c(C(=O)OC[C@H](O)[C@@H]2NC(=O)[C@H](C)N(C)C(=O)CN(C)C(=O)[C@@H]3CCCN3C(=O)[C@@H](C(C)C)NC2=O)c(N)c1=O [ACTINOMYCIN G6]	0 mm		1000 nM	0 mm			0 mm	1400 nM	4600 nM	2000 nM	1600 nM and > 7900 nM
